Assay results: US20260125360A1, “HERBICIDAL IMIDAZOLE COMPOUNDS” (SYNGENTA CROP PROTECTION AG, priority 2022, published 2026)

Experiments:
Assay type in all cases: in vivo
Conditions in all cases: 250 g/ha, evaluated after 13 days
[1] = test system: Ipomoea hederacea (IPOHE); test: Pre-emergence herbicide glasshouse test
Method in brief: (§1)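 Percentage plant damage, rated on a five-point scale (5=81-100%; 1=0-20%), is assessed 13 days after treatment. Sprays are applied at 250 g/ha unless otherwise stated, one day after sowing for pre-emergence and eight days after for post-emergence, from acetone/water (50:50) containing 0.5% Tween 20.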

[2] = test system: Echinochloa crus-galli (ECHCG); test: Pre-emergence herbicide glasshouse test
Method in brief: as §1

[3] = test system: Amaranthus palmeri (AMAPA); test: Pre-emergence herbicide glasshouse test
Method in brief: as §1

[4] = test system: Amaranthus retoflexus (AMARE); test: Pre-emergence herbicide glasshouse test
Method in brief: as §1

[5] = test system: Ipomoea hederacea (IPOHE); test: Post-emergence herbicide glasshouse test
Method in brief: as §1

[6] = test system: Echinochloa crus-galli (ECHCG); test: Post-emergence herbicide glasshouse test
Method in brief: as §1

[7] = test system: Amaranthus palmeri (AMAPA); test: Post-emergence herbicide glasshouse test
Method in brief: as §1

[8] = test system: Amaranthus retoflexus (AMARE); test: Post-emergence herbicide glasshouse test
Method in brief: as §1

Structure (SMILES)	percentage damage caused to the plant, IPOHE (five-point scale) [1]	percentage damage caused to the plant, ECHCG (five-point scale) [2]	percentage damage caused to the plant, AMAPA (five-point scale) [3]	percentage damage caused to the plant, AMARE (five-point scale) [4]	percentage damage caused to the plant, IPOHE (five-point scale) [5]	percentage damage caused to the plant, ECHCG (five-point scale) [6]	percentage damage caused to the plant, AMAPA (five-point scale) [7]	percentage damage caused to the plant, AMARE (five-point scale) [8]
CCc1noc(Cn2cc(C(F)(F)F)nc2-c2ccc(Cl)nc2)n1 [Compound 1.098]	4 (4=61-80%)	1 (1=0-20%)	5 (5=81-100%)	5 (5=81-100%)	3 (3=41-60%)	1 (1=0-20%)	4 (4=61-80%)	4 (4=61-80%)
CCn1cc(Cl)c(Cn2cc(C(F)(F)F)nc2-c2ccc(Cl)nc2)n1 [Compound 1.100]	1 (1=0-20%)	1 (1=0-20%)	1 (1=0-20%)	1 (1=0-20%)	1 (1=0-20%)	1 (1=0-20%)	1 (1=0-20%)	1 (1=0-20%)
Cc1noc(Cn2cc(C(F)(F)F)nc2-c2ccc(Cl)nc2)n1 [Compound 1.101]	5 (5=81-100%)	1 (1=0-20%)	5 (5=81-100%)	5 (5=81-100%)	5 (5=81-100%)	1 (1=0-20%)	4 (4=61-80%)	4 (4=61-80%)
Cn1nnc(Cn2cc(C(F)(F)F)nc2-c2ccc(Cl)nc2)n1 [Compound 1.109]	5 (5=81-100%)	5 (5=81-100%)	5 (5=81-100%)	5 (5=81-100%)	5 (5=81-100%)	1 (1=0-20%)	5 (5=81-100%)	5 (5=81-100%)
CCn1cc(Cn2cc(C(F)(F)F)nc2-c2ccc(Cl)nc2)nn1 [Compound 1.110]	5 (5=81-100%)	3 (3=41-60%)	5 (5=81-100%)	5 (5=81-100%)	4 (4=61-80%)	1 (1=0-20%)	4 (4=61-80%)	4 (4=61-80%)
FC(F)(F)c1cn(Cc2ccns2)c(-c2ccc(Cl)nc2)n1 [Compound 1.113]	1 (1=0-20%)	1 (1=0-20%)	1 (1=0-20%)	1 (1=0-20%)	1 (1=0-20%)	1 (1=0-20%)	1 (1=0-20%)	1 (1=0-20%)
FC(F)(F)c1cn(Cc2ccc(Cl)s2)c(-c2ccc(Cl)nc2)n1 [Compound 1.117]	1 (1=0-20%)	1 (1=0-20%)	5 (5=81-100%)	5 (5=81-100%)	2 (2=21-40%)	1 (1=0-20%)	5 (5=81-100%)	5 (5=81-100%)
FC(F)(F)c1cn(Cc2ncco2)c(-c2ccc(Cl)nc2)n1 [Compound 1.118]	5 (5=81-100%)	1 (1=0-20%)	5 (5=81-100%)	5 (5=81-100%)	3 (3=41-60%)	1 (1=0-20%)	3 (3=41-60%)	3 (3=41-60%)
FC(F)(F)c1cn(Cc2noc(C3CC3)n2)c(-c2ccc(Cl)nc2)n1 [Compound 1.125]	5 (5=81-100%)	5 (5=81-100%)	5 (5=81-100%)	5 (5=81-100%)	5 (5=81-100%)	4 (4=61-80%)	4 (4=61-80%)	5 (5=81-100%)
CC(C)c1nc(Cn2cc(C(F)(F)F)nc2-c2ccc(Cl)nc2)no1 [Compound 1.126]	1 (1=0-20%)	1 (1=0-20%)	1 (1=0-20%)	1 (1=0-20%)	1 (1=0-20%)	1 (1=0-20%)	1 (1=0-20%)	1 (1=0-20%)
CC(C)c1nnc(Cn2cc(C(F)(F)F)nc2-c2ccc(Cl)nc2)o1 [Compound 1.131]	1 (1=0-20%)	1 (1=0-20%)	1 (1=0-20%)	5 (5=81-100%)	1 (1=0-20%)	1 (1=0-20%)	1 (1=0-20%)	1 (1=0-20%)
FC(F)(F)c1cn(Cc2cc(C3CC3)no2)c(-c2ccc(Cl)nc2)n1 [Compound 1.134]	4 (4=61-80%)	3 (3=41-60%)	5 (5=81-100%)	5 (5=81-100%)	4 (4=61-80%)	2 (2=21-40%)	5 (5=81-100%)	5 (5=81-100%)
CC(C)(C)c1csc(Cn2cc(C(F)(F)F)nc2-c2ccc(Cl)nc2)n1 [Compound 1.137]	1 (1=0-20%)	1 (1=0-20%)	1 (1=0-20%)	1 (1=0-20%)	1 (1=0-20%)	1 (1=0-20%)	1 (1=0-20%)	1 (1=0-20%)
